Consider 45 molecules from patent US20240262806A1, “INHIBITORS OF NLRP3” (PTC THERAPEUTICS, INC., priority 2021, published 2024).

The structures appear in SMILES notation.

The test system of this assay is NLRP3 inflammasome. In words: IL-1β Secretion Assay (NLRP3-dependent IL-1β secretion in PMA-differentiated THP-1 cells, nigericin activation, HTRF). It is filed as cell-based. Conditions: Homo sapiens, THP-1, THP-1 cells, 100 ng/mL PMA 24 h, compound 20 h, 2.5 μM Nigericin 3 h; read-out: IC50 IL-1β Inhibition. As for the experimental part:
Cells were washed 1× with 100 ul PBS and replaced with fresh RPMI+5% FBS. Compounds were serial diluted in DMSO with 3 fold dilution for a total of 7 concentrations.
Compounds, once produced and prepared according to the present invention, can be assessed in variety of assays to characterize their activities. […] IC50 values of IL1β inhibition were calculated from the plot of percentage of inhibition versus the inhibitor concentration by a logistics fit. TABLE I depict examples of compounds according to generic Formulae I. Data which is <1 nM is listed as *****; data 1-10 nM is listed as ****; data 10-100 nM is listed as ***, data 100-300 nM is listed as **, data >300 nM is listed as *.
For orientation: IC50 means the concentration at which inhibition is half-maximal. Take `CN1CCC[C@@H](Nc2nnc(-c3ccc(C(F)(F)F)cc3O)c3sccc23)C1` [Compound I-4]: the half-maximal inhibitory concentration (IC50) was 0.001 to 0.01 µM.

Regarding `Oc1cc(C(F)(F)F)ccc1-c1nnc(NC2CCNC2)c2ccccc12` (stereo not drawn) [Compound I-6], the IC50 was in the range of 0.01 to 0.1 µM.

Consider `CN1CCC[C@@H](Nc2nnc(-c3ccc(C(F)(F)F)cc3O)c3ccncc23)C1` [Compound I-7], for which the IC50 was under 0.001 µM.

As to `Cc1cccc2c(N[C@@H]3CCCN(C)C3)nnc(-c3ccc(C(F)(F)F)cc3O)c12` [Compound I-8], the IC50 was in the range of 0.001 to 0.01 µM.

In the case of `CN1CCC[C@@H](Nc2nnc(-c3ccc(C(F)(F)F)cc3O)c3cc(F)ccc23)C1` [Compound I-9], the half-inhibitory concentration (IC50) was in the range of 0.001 to 0.01 µM.

`CN1CCC[C@@H](Nc2nnc(-c3ccc(-n4nccn4)cc3O)c3ccccc23)C1` [Compound I-10, (R)-2-(4-((1-methylpiperidin-3-yl)amino)phthalazin-1-yl)-5-(2H-1,2,3-triazol-2-yl)phenol]: the IC50 is 0.001 to 0.01 µM.

Take `Oc1cc(C(F)(F)F)ccc1-c1nnc(N[C@@H]2CCCNC2)c2c1CCCC2` [Compound I-11, (R)-2-(4-(Piperidin-3-ylamino)-5,6,7,8-tetrahydrophthalazin-1-yl)-5-(trifluoromethyl)phenol]: the IC50 was in the range of 0.01 to 0.1 µM.

Take `CN1CCC[C@@H](Nc2nnc(-c3ccc(Cl)cc3O)c3ccccc23)C1` [Compound I-13]: the IC50 was under 0.001 µM.

On to `CN1CCC[C@@H](Nc2nnc(-c3c(O)cccc3F)c3ccccc23)C1` [Compound I-14], for which the IC50 was in the range of 0.001 to 0.01 µM.

As to `CN1CCC[C@@H](Nc2nnc(-c3ccc(O)cc3O)c3ccccc23)C1` [Compound I-15, (R)-4-(4-((1-methylpiperidin-3-yl)amino)phthalazin-1-yl)benzene-1,3-diol], the IC50 lay within 0.1 to 0.3 µM.

On to `CN1CCC[C@@H](Nc2nnc(-c3ccc(F)cc3O)c3ccccc23)C1` [Compound I-16], for which the IC50 is 0.001 to 0.01 µM.

On to `Cc1ccc(O)c(-c2nnc(N[C@@H]3CCCN(C)C3)c3ccccc23)c1` [Compound I-17], for which the IC50 was 0.1 to 0.3 µM.

As for `Cc1cc(O)c(-c2nnc(N[C@@H]3CCCN(C)C3)c3ccccc23)cc1F` [Compound I-18], the concentration for half-maximal inhibition (IC50) lay in the range of 0.001 to 0.01 µM.

On to `CCN1CCC[C@@H](Nc2nnc(-c3ccc(C(F)(F)F)cc3O)c3c2CCCC3)C1` [Compound I-19], for which the IC50 was under 0.001 µM.

As for `Oc1cc(C(F)(F)F)ccc1-c1nnc(N[C@@H]2CCCNC2)c2ccccc12` [Compound I-20, 2-[4-[[(3R)-3-Piperidyl]amino]phthalazin-1-yl]-5-(trifluoromethyl)phenol], the IC50 is under 0.001 µM.

For `Oc1cc(C(F)(F)F)ccc1-c1nnc(O[C@@H]2CCCNC2)c2ccccc12` [Compound I-21], the IC50 is 0.01 to 0.1 µM.

`CN1CCC[C@H](Oc2nnc(-c3ccc(C(F)(F)F)cc3O)c3ccccc23)C1` [Compound I-22]: the IC50 was in the range of 0.1 to 0.3 µM.

Turning to `CC1CCCc2c(N[C@@H]3CCCNC3)nnc(-c3ccc(C(F)(F)F)cc3O)c21` (stereo partly drawn) [Compound I-23], the IC50 fell in the range of 0.01 to 0.1 µM.

With `CN1CCC[C@@H](Nc2nnc(-c3ccc(C#N)cc3O)c3ccccc23)C1` [Compound I-24], the 50% inhibitory concentration (IC50) is under 0.001 µM.

With `Cc1ccc(-c2nnc(N[C@@H]3CCCN(C)C3)c3ccccc23)c(O)c1` [Compound I-25], the IC50 was under 0.001 µM.

Consider `CN1CC[C@@H](Nc2nnc(-c3ccc(C(F)(F)F)cc3O)c3c2CCCC3)C1` [Compound I-26], for which the IC50 was 0.01 to 0.1 µM.

Turning to `Cc1cccc(-c2nnc(N[C@@H]3CCCN(C)C3)c3ccccc23)c1O` [Compound I-27], the IC50 is under 0.001 µM.

As for `CN1CCC[C@@H](Nc2nnc(-c3cccc(F)c3O)c3ccccc23)C1` [Compound I-28], the concentration for half-maximal inhibition (IC50) is 0.01 to 0.1 µM.

As for `CN1CCC[C@@H](Oc2nnc(-c3ccc(C(F)(F)F)cc3O)c3ccccc23)C1` [Compound I-29], the IC50 lay within 0.001 to 0.01 µM.

As to `Oc1cc(C(F)(F)F)ccc1-c1nnc(CC2CCCNC2)c2ccccc12` (stereo not drawn) [Compound I-30], the half-maximal inhibitory concentration (IC50) lay within 0.01 to 0.1 µM.

Regarding `Oc1cc(C(F)(F)F)ccc1-c1nnc(N[C@@H]2CCCNC2)c2c1CCCCC2` [Compound I-31, (R)-2-(4-(Piperidin-3-ylamino)-6,7,8,9-tetrahydro-5H-cyclohepta[d]pyridazin-1-yl)-5-(trifluoromethyl)phenol], the IC50 is under 0.001 µM.

Turning to `Cc1nc(-c2ccc(-c3nnc(N[C@@H]4CCCNC4)c4ccccc34)c(O)c2)ns1` [Compound I-32], the IC50 lay in the range of 0.01 to 0.1 µM.

For `CN1CCC[C@@H](Nc2nnc(-c3ccccc3O)c3ccccc23)C1` [Compound I-33], the IC50 was 0.001 to 0.01 µM.

In the case of `CC(C)N1CCC[C@@H](Nc2nnc(-c3ccc(C(F)(F)F)cc3O)c3c2CCCC3)C1` [Compound I-34], the IC50 is under 0.001 µM.

For `Oc1cc(C(F)(F)F)ccc1-c1nnc(N[C@@H]2CCCNC2)c2cnccc12` [Compound I-35], the IC50 was under 0.001 µM.

`CN1CCC[C@@H](Nc2nnc(-c3ccc(C(F)(F)F)cc3O)c3c2CCCCC3)C1` [Compound I-36, (R)-2-(4-((1-Methylpiperidin-3-yl)amino)-6,7,8,9-tetrahydro-5H-cyclohepta[d]pyridazin-1-yl)-5-(trifluoromethyl)phenol]: the IC50 is under 0.001 µM.

Take `CN1CCC[C@@H](Nc2nnc(-c3ccc(-n4ccnn4)cc3O)c3ccccc23)C1` [Compound I-37]: the IC50 lay within 0.01 to 0.1 µM.

For `Cc1nc(-c2ccc(-c3nnc(N[C@@H]4CCCN(C)C4)c4ccccc34)c(O)c2)ns1` [Compound I-38], the IC50 is under 0.001 µM.

As to `CN1CCC[C@@H](Nc2nnc(-c3ccc(-c4ccccc4)cc3O)c3ccccc23)C1` [Compound I-39], the IC50 lay within 0.001 to 0.01 µM.

For `CN1CCC[C@@H](Nc2nnc(-c3cc(-c4ccccc4)ccc3O)c3ccccc23)C1` [Compound I-40], the IC50 fell in the range of 0.1 to 0.3 µM.

As for `Cc1cc(O)c(-c2nnc(N[C@@H]3CCCN(C)C3)c3ccccc23)cc1C` [Compound I-41], the IC50 lay within 0.001 to 0.01 µM.

As to `Cc1ccc(-c2nnc(N[C@@H]3CCCN(C)C3)c3ccccc23)c(O)c1C` [Compound I-42], the concentration for half-maximal inhibition (IC50) was under 0.001 µM.

For `CCN1CCC[C@@H](Nc2nnc(-c3ccc(C(F)(F)F)cc3O)c3ccncc23)C1` [Compound I-43], the IC50 was under 0.001 µM.

Regarding `CN1CCCC(Cc2nnc(-c3ccc(C(F)(F)F)cc3O)c3ccccc23)C1` (stereo not drawn) [Compound I-44], the IC50 lay within 0.001 to 0.01 µM.

Consider `CC1(C)CCc2c(N[C@@H]3CCCNC3)nnc(-c3ccc(C(F)(F)F)cc3O)c21` [Compound I-45], for which the IC50 lay within 0.001 to 0.01 µM.

Take `CN1CCC[C@@H](Nc2nnc(-c3ccc(C(F)(F)F)cc3O)c3c2CCC3(C)C)C1` [Compound I-46]: the concentration for half-maximal inhibition (IC50) lay within 0.01 to 0.1 µM.

As for `CN1CCC[C@@H](N(C)c2nnc(-c3ccc(C(F)(F)F)cc3O)c3c2CCCC3)C1` [Compound I-47, 2-[4-[Methyl-[(3R)-1-methyl-3-piperidyl]amino]-5,6,7,8-tetrahydrophthalazin-1-yl]-5-(trifluoromethyl)phenol], the concentration for half-maximal inhibition (IC50) is under 0.001 µM.

Regarding `OCCN1CCC[C@@H](Nc2nnc(-c3ccc(C(F)(F)F)cc3O)c3ccccc23)C1` [Compound I-48, 2-[4-[[(3R)-1-(2-Hydroxyethyl)-3-piperidyl]amino]phthalazin-1-yl]-5-(trifluoromethyl)phenol], the IC50 is under 0.001 µM.

For `CN1CCC[C@@H](Nc2nnc(-c3ccc(C4CC4)cc3O)c3ccccc23)C1` [Compound I-49], the half-maximal inhibitory concentration (IC50) was under 0.001 µM.

In the case of `Cc1cccc(O)c1-c1nnc(N[C@@H]2CCCN(C)C2)c2ccccc12` [Compound I-50], the IC50 was under 0.001 µM.
